The values below come from patent publication EP4471049A1 (Zealand Pharma A/S, priority 2023, dated 2024).

A word on the IC50: it is the point on the concentration scale where inhibition reaches its midpoint. Higher therefore signals weaker potency in that assay.

The structures appear in SMILES notation. *1 amine or outer side, *2 acyl side, *3 side chain or, on linkers, in order; H or OH if unused. Where a SMILES comes first, the peptide text is derived from it. Bridges are numbered along the chain shown (N, C = ends). [ ]: non-standard residue; d: D form. 2Nal = N[C@@H](Cc1ccc2ccccc2c1)C(=O)O; AEF = NCCOc1ccc(C[C@H](N)C(=O)O)cc1; X1 = O=C(Cc1ccc(CN[*:1])cc1)[*:2]; 3Pal = N[C@@H](Cc1cccnc1)C(=O)O; αMeL = CC(C)C[C@](C)(N)C(=O)O; CH2COCH2 = O=C(C[*:1])C[*:2]; 3Amb = NCc1cccc(C(=O)O)c1; Dab = NCC[C@H](N)C(=O)O

A short description of data set [1]: Peptide stability in simulated gastric fluid (SGF). Type of data set: in vitro ADME. As to conditions: 37 °C, pH 1.2, porcine pepsin 3.2 g/L; for SGF (% remaining 1 h) / SGF (% remaining 4 h): 10 µM; for remaining at 4 h, 10 µM / remaining at 1 h, 10 µM: pig, simulated gastric fluid (SGF) with porcine pepsin. The method, then:
(§1) SGF was prepared by dissolving sodium chloride (0.2 g) in 50 mL of water. A volume of 0.7 mL of 10 M HCl was added to adjust the pH of the solution to 1.2 and the volume made up to 100 mL with water. […] SIF was prepared by dissolving monobasic potassium phosphate (0.68 g) in 50 mL of water and adjusting the pH to 6.8 with 1 M NaOH. The volume was subsequently made up to 100 mL with water. 200 mg porcine pancreatin (P1625, Sigma Aldrich) was gently dissolved into 20 mL preheated (37 °C) solution (10 g/L) immediately prior to the incubation.
(§2) The incubation was performed at 37 °C with gentle shaking. […] After the last timepoint, the sampling plate was mixed for 10 min on a shaking table and centrifuged 10 min at 2200 g. 70 µL resulting supernatant was diluted with 150 µL water, mixed and centrifugated before analysis by liquid chromatography high resolution mass spectrometry. […] Percent remaining at each timepoint was calculated relative to timepoint zero based on absolute peak areas.
Compounds with a SGF stability (after 4 h) above 70% are considered highly SGF stable. […] Table 3-4: SGF data

Data set [2] in a line: Peptide stability in simulated intestinal fluid (SIF). Conditions: 37 °C, pH 6.8, porcine pancreatin 10 g/L, 10 µM; for remaining at 4 h, 10 µM / remaining at 1 h, 10 µM: pig, simulated intestinal fluid (SIF) with porcine pancreatin; for remaining at 4 h, 10 µM: read-out: SIF (% remaining 4 h). Type of data set: in vitro ADME. The protocol: as §1, §2
Compounds with a SIF stability (after 4 h) above 70% are considered highly SIF stable.

The target in data set [3] is T1, human IL-23R (Homo sapiens, UniProt Q5VWK5).
T1 sequence (Q5VWK5 22-629): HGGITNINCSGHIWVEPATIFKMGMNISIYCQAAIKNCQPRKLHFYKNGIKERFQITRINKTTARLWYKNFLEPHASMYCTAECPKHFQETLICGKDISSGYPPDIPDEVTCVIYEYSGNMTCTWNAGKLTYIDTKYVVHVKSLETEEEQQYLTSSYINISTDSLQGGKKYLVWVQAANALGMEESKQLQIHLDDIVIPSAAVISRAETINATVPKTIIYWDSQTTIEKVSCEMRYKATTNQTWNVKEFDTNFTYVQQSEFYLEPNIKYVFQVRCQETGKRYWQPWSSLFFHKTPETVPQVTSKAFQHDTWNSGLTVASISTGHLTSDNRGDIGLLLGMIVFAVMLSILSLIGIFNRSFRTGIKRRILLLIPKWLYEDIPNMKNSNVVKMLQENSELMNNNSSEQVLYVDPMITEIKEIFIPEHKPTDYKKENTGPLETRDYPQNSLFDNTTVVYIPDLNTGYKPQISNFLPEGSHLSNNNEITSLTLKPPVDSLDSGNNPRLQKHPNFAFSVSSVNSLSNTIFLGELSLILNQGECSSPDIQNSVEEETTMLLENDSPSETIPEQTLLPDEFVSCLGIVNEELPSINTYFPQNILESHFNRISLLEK
Briefly: biochemical. As to conditions: for Emax: read-out: % displacement (hIL-23R binding). The gist of the method: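 Membranes from HEK293 cells stably expressing Nluc-tagged human IL-23R were incubated 2 h at room temperature with test compound and a fluorophore-labelled tracer. After substrate addition, loss of BRET (TAMRA over luciferase emission) reported tracer displacement. A 4PL fit gave IC50 values.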

Consider `CC(C)C[C@@H]1NC(=O)[C@H](Cc2c[nH]c3ccccc23)NC(=O)[C@H](Cc2c[nH]c3ccccc23)NC(=O)[C@@H]2CSCC(=O)CSC[C@H](NC(=O)[C@H](CO)NC(=O)[C@@H](NC(=O)[C@@H](N)CC(=O)O)CSCC(=O)CSC[C@@H](C(=O)N[C@@H](CCCNC(=N)N)C(N)=O)NC1=O)C(=O)N[C@@H](Cc1c[nH]c3ccccc13)C(=O)N[C@@H](CCC(N)=O)C(=O)N2` (single isomer, unassigned) [I3 (isomer 3), H-DC(1a)SC(2a)WQC(2a)WWLC(1a)R-[NH2], reference compound], for which, in data set [1], the “SGF (% remaining 1 h)” value is listed as 5% and the “SGF (% remaining 4 h)” value is 0%. In addition, the “SIF (% remaining 1 h)” value in data set [2] (1 h) is given as 0%. In data set [2] (4 h), the “SIF (% remaining 4 h)” value is 0%.
Regarding `CC(C)C[C@]1(C)NC(=O)[C@H](Cc2ccc3ccccc3c2)NC(=O)[C@H](Cc2ccc(OCCN)cc2)NC(=O)[C@@H]2CCNC(=O)CC[C@H](NC(=O)[C@H](CO)NC(=O)Cc3ccc(cc3)CNC(=O)CC[C@@H](C(=O)N[C@@H](CCN)C(=O)N[C@@H](Cc3cn(C)cn3)C(N)=O)NC1=O)C(=O)N[C@@H](Cc1c[nH]c3ccccc13)C(=O)N[C@@H](CCC(N)=O)C(=O)N2` [Compound 14, [4-Aminomethyl-phenylacetyl](1c)*SE(2c)WQ[Dab](2c)[Y(2-aminoethoxy)][2-Nal][2-Me-Leu]E(1c)[Dab][H(Me)]-[NH2]], the amount remaining at 4 h, 10 µM in data set [1] is 82%; in data set [2] (4 h) it was 75%. In data set [3], the “% displacement (hIL-23R binding)” value is recorded as 102%.
`CNC(=O)[C@H](Cc1cccnc1)NC(=O)[C@H](CCN)NC(=O)[C@@H]1CCC(=O)NCc2ccc(cc2)CC(=O)N[C@@H](CO)C(=O)N[C@H]2CCC(=O)NCC[C@H](NC(=O)[C@H](CCNC(C)=O)NC(=O)[C@H](Cc3c[nH]c4ccccc34)NC2=O)C(=O)N[C@@H](Cc2ccc(OCCN)cc2)C(=O)N[C@@H](Cc2ccc3ccccc3c2)C(=O)N[C@@](C)(CC(C)C)C(=O)N1` [Compound 25, [4-Aminomethyl-phenylacetyl](1c)*SE(2c)W[Dab(Ac)][Dab](2c)[Y(2-aminoethoxy)][2-Nal][2-Me-Leu]E(1c)[Dab][3-(3-Pyridyl)-Ala]-[NHMe]] ([X1]SEW[Dab](Ac)[Dab][AEF][2Nal][αMeL]E[Dab][3Pal]-NHMe; lactam 3-6, N-10): the fraction remaining at 4 h, 10 µM is 88% in data set [1] and 91% in data set [2] (4 h). Moreover, the Emax in data set [3] stood at 93%.
With `CCCC[C@H](NC(=O)[C@@H]1CCC(=O)NCc2ccc(cc2)CC(=O)N[C@@H](CO)C(=O)N[C@H]2CCC(=O)NCC[C@H](NC(=O)[C@H](CCC(N)=O)NC(=O)[C@H](Cc3c[nH]c4ccccc34)NC2=O)C(=O)N[C@@H](Cc2ccc(OCCN)cc2)C(=O)N[C@@H](Cc2ccc3ccccc3c2)C(=O)N[C@@](C)(CC(C)C)C(=O)N1)C(=O)N[C@@H](Cc1cccnc1)C(=O)NC` [Compound 32, [4-Aminomethyl-phenylacetyl](1c)*SE(2c)WQ[Dab](2c)[Y(2-aminoethoxy)][2-Nal][2-Me-Leu]E(1c)[Nle][3-(3-Pyridyl)-Ala]-[NHMe]], the share remaining at 1 h, 10 µM in data set [1] is 96%. Besides, in data set [3], the “% displacement (hIL-23R binding)” value worked out at 98% and half-maximal inhibition (IC50) required 0.027 nM. In data set [2] (4 h), the amount remaining at 4 h, 10 µM was 65%.
Turning to `CNC(=O)[C@H](Cc1cccnc1)NC(=O)[C@H](CCC(N)=O)NC(=O)[C@@H]1CCC(=O)NCc2ccc(cc2)CC(=O)N[C@@H](CO)C(=O)N[C@H]2CCC(=O)NCC[C@H](NC(=O)[C@H](CCC(N)=O)NC(=O)[C@H](Cc3c[nH]c4ccccc34)NC2=O)C(=O)N[C@@H](Cc2ccc(OCCN)cc2)C(=O)N[C@@H](Cc2ccc3ccccc3c2)C(=O)N[C@@](C)(CC(C)C)C(=O)N1` [Compound 33, [4-Aminomethyl-phenylacetyl](1c)*SE(2c)WQ[Dab](2c)[Y(2-aminoethoxy)][2-Nal][2-Me-Leu]E(1c)Q[3-(3-Pyridyl)-Ala]-[NHMe]] ([X1]SEWQ[Dab][AEF][2Nal][αMeL]EQ[3Pal]-NHMe; lactam 3-6, N-10), the fraction remaining at 4 h, 10 µM in data set [1] was 93%; in data set [2] (4 h), 69%. Moreover, the half-maximal inhibitory concentration (IC50) in data set [3] is 0.014 nM. Besides, the Emax in data set [3] turned out to be 92%.
Consider `CNC(=O)[C@H](Cc1cccnc1)NC(=O)[C@H](Cc1c[nH]cn1)NC(=O)[C@@H]1CCC(=O)NCc2ccc(cc2)CC(=O)N[C@@H](CO)C(=O)N[C@H]2CCC(=O)NCC[C@H](NC(=O)[C@H](CCC(N)=O)NC(=O)[C@H](Cc3c[nH]c4ccccc34)NC2=O)C(=O)N[C@@H](Cc2ccc(OCCN)cc2)C(=O)N[C@@H](Cc2ccc3ccccc3c2)C(=O)N[C@@](C)(CC(C)C)C(=O)N1` [Compound 34, [4-Aminomethyl-phenylacetyl](1c)*SE(2c)WQ[Dab](2c)[Y(2-aminoethoxy)][2-Nal][2-Me-Leu]E(1c)H[3-(3-Pyridyl)-Ala]-[NHMe]] ([X1]SEWQ[Dab][AEF][2Nal][αMeL]EH[3Pal]-NHMe; lactam 3-6, N-10), for which the fraction remaining at 1 h, 10 µM in data set [1] was 96%. In addition, in data set [3], the “% displacement (hIL-23R binding)” value is given as 90% and it took 0.013 nM to reach half-maximal inhibition (IC50). Moreover, the share remaining at 1 h, 10 µM in data set [2] (1 h) was 87%. Moreover, in data set [2] (4 h), the fraction remaining at 4 h, 10 µM was 56%.
For the compound `CNC(=O)[C@H](Cc1cccnc1)NC(=O)C1(NC(=O)[C@@H]2CCC(=O)NCc3ccc(cc3)CC(=O)N[C@@H](CO)C(=O)N[C@H]3CCC(=O)NCC[C@H](NC(=O)[C@H](CCC(N)=O)NC(=O)[C@H](Cc4c[nH]c5ccccc45)NC3=O)C(=O)N[C@@H](Cc3ccc(OCCN)cc3)C(=O)N[C@@H](Cc3ccc4ccccc4c3)C(=O)N[C@@](C)(CC(C)C)C(=O)N2)CCOCC1` [Compound 35, [4-Aminomethyl-phenylacetyl](1c)*SE(2c)WQ[Dab](2c)[Y(2-aminoethoxy)][2-Nal][2-Me-Leu]E(1c)[THP][3-(3-Pyridyl)-Ala]-[NHMe]], in data set [1], the share remaining at 4 h, 10 µM was 94%. Moreover, the “% displacement (hIL-23R binding)” value in data set [3] is 101%. Besides, in data set [2] (1 h), the fraction remaining at 1 h, 10 µM was 110%.
As to `CNC(=O)[C@H](Cc1cccnc1)NC(=O)[C@H](CCO)NC(=O)[C@@H]1CCC(=O)NCc2ccc(cc2)CC(=O)N[C@@H](CO)C(=O)N[C@H]2CCC(=O)NCC[C@H](NC(=O)[C@H](CCC(N)=O)NC(=O)[C@H](Cc3c[nH]c4ccccc34)NC2=O)C(=O)N[C@@H](Cc2ccc(OCCN)cc2)C(=O)N[C@@H](Cc2ccc3ccccc3c2)C(=O)N[C@@](C)(CC(C)C)C(=O)N1` [Compound 36, [4-Aminomethyl-phenylacetyl](1c)*SE(2c)WQ[Dab](2c)[Y(2-aminoethoxy)][2-Nal][2-Me-Leu]E(1c)[hSer][3-(3-Pyridyl)-Ala]-[NHMe]], the share remaining at 1 h, 10 µM in data set [1] is 96%. In data set [3], the “% displacement (hIL-23R binding)” value turned out to be 94% and the 50% inhibitory concentration (IC50) is 0.014 nM. Also, in data set [2] (4 h), the amount remaining at 4 h, 10 µM was 55%.
Regarding `CC(C)C[C@@H]1NC(=O)[C@H](Cc2ccc3ccccc3c2)NC(=O)[C@H](Cc2c[nH]c3ccccc23)NC(=O)[C@@H]2CSCC(=O)CSC[C@H](NC(=O)[C@H](CO)NC(=O)c3cccc(c3)CNC(=O)CC[C@@H](C(=O)N[C@@H](CCCNC(=N)N)C(N)=O)NC1=O)C(=O)N[C@@H](Cc1c[nH]c3ccccc13)C(=O)N[C@@H](CCC(N)=O)C(=O)N2` [Ref 37, [(3-Aminomethyl)benzoyl](1c)*SC(2a)WQC(2a)W[2-Nal]LE(1c)R-[NH2], reference compound] ([3Amb]SCWQCW[2Nal]LER-NH2; linker 3-6 via CH2COCH2; lactam N-10), in data set [1], the “SGF (% remaining 1 h)” value is on record as 2% and the “SGF (% remaining 4 h)” value is 1%.
